The text below walks through data of patent US9079901B2, “Fused heterocyclic compounds as ion channel modulators” (Gilead Sciences, Inc., priority 2010, dated 2015).

The target of this assay is wild-type human cardiac sodium channel, hNav1.5 (late sodium current) in HEK293 cells (Homo sapiens, UniProt Q14524). The assay is described as follows: Late INa screening assay (automated whole-cell patch clamp, PatchXpress). It counts as cell-based. The note with it: HEK293, compound at 1 μM; late INa generated with 10 μM Tefluthrin (or 50 nM ATX II); HEK293 hNav1.5; read-out: Late INa 1 μM (percent block of late INa). How it is done: The late sodium current (Late INa) and peak sodium current (Peak INa) assays are performed on an automated electrophysiology platform, PatchXpress 7000A (MDS Analytical Technologies, Sunnyvale, Calif.), which uses the whole cell patch clamp technique to measure currents through the cell membrane of up to 16 cells at a time. The assay uses an HEK293 (human embryonic kidney) cell line heterologously expressing the wild-type human cardiac sodium channel, hNav1.5, purchased from Millipore (Billerica, Mass.). No beta subunits were coexpressed with the Na channel alpha subunit. Cells are maintained with standard tissue culture procedures and stable channel expression is maintained with 400 μg/ml Geneticin in the culture medium. Cells isolated for use on PatchXpress are incubated for 5 minutes in Versene 1× and then for 2 minutes in 0.0125% Trypsin-EDTA (both at 37° C.) to ensure that 80-90% of the cells are single and not part of a cell cluster. Experiments are carried out at 24-27° C.
For both the Late INa and Peak INa assays, series resistance compensation is set to 50% and whole-cell compensation is performed automatically. Currents are low-pass filtered at 10 kHz and digitized at 31.25 kHz. Currents through open sodium channels are automatically recorded and stored in the DataXpress2 database (MDS Analytical Technologies, Sunnyvale, Calif.). Analysis is performed using DataXpress2 analysis software and data are compiled in Excel.
Compound stocks are routinely made in glass vials to 10 mM in dimethyl sulfoxide (DMSO). In some cases, when compounds are not soluble in DMSO, they are made in 100% ethanol. Stocks are sonicated as necessary. The extracellular solution for screening Late INa is composed of: 140 mM NaCl, 4 mM KCl, 1.8 mM CaCl2, 0.75 mM MgCl2, and 5 mM HEPES with pH adjusted to 7.4 using NaOH. The extracellular solution for screening Peak INa is composed of: 20 mM NaCl, 120 mM N-methyl-D glucamine, 4 mM KCl, 1.8 mM CaCl2, 0.75 mM MgCl2, and 5 mM HEPES with pH adjusted to 7.4 using HCl. The intracellular solution used to perfuse the inside of the cells for both the Late INa and Peak INa assays contains: 120 mM CsF, 20 mM CsCl, 5 mM EGTA, 5 mM HEPES and pH adjusted to 7.4 with CsOH. Compounds are diluted in extracellular solution to 10 μM in glass vials and then transferred to glass well plates before robotic addition to the cells. The 0Na extracellular solution used at the end of each experiment for the Late INa and Peak INa assays to measure baseline current contains: 140 mM N-methyl-D-glucamine; 4 mM KCl; 1.8 mM CaCl2; 0.75 mM MgCl2; 5 mM HEPES and pH was adjusted to 7.4 with HCl.
For the Late INa assay, sodium channels are activated every 10 seconds (0.1 Hz) by depolarizing the cell membrane to −20 mV for 250 milliseconds (ms) from a holding potential of −120 mV. In response to a −20 mV voltage step, typical Nav1.5 sodium currents activate rapidly to a peak negative current and then inactivate nearly completely within 3-4 ms.
All compounds are tested to determine their activity in blocking the late sodium current. Late INa current is generated by adding 10 μM Tefluthrin (pyrethroid) to the extracellular solution while recording Na currents. For some experiments, 50 nM ATX II (sea anemone toxin), another late INa activator, was used to generate the late component. Both activators generate late components that are large enough that block of the late component by compounds can be measured easily. For the purposes of the screening, late INa is defined as the mean current between 225 ms and 250 ms after stepping to −20 mV to activate Na channels. After establishing the whole cell recording configuration, late INa activators are added to each well 4 times over a 16-17 minute period so that the late component of the Na current reaches a stable value. Compounds are then added (typically at 10 μM), in the presence of late INa activator, with 3 additions over the course of 7 or 8 minutes. […]
On the technique in general: In patch-clamp work, channel activity is measured electrically.

Sequence of wild-type human cardiac sodium channel, hNav1.5 (late sodium current) in HEK293 cells (Q14524 whole entry): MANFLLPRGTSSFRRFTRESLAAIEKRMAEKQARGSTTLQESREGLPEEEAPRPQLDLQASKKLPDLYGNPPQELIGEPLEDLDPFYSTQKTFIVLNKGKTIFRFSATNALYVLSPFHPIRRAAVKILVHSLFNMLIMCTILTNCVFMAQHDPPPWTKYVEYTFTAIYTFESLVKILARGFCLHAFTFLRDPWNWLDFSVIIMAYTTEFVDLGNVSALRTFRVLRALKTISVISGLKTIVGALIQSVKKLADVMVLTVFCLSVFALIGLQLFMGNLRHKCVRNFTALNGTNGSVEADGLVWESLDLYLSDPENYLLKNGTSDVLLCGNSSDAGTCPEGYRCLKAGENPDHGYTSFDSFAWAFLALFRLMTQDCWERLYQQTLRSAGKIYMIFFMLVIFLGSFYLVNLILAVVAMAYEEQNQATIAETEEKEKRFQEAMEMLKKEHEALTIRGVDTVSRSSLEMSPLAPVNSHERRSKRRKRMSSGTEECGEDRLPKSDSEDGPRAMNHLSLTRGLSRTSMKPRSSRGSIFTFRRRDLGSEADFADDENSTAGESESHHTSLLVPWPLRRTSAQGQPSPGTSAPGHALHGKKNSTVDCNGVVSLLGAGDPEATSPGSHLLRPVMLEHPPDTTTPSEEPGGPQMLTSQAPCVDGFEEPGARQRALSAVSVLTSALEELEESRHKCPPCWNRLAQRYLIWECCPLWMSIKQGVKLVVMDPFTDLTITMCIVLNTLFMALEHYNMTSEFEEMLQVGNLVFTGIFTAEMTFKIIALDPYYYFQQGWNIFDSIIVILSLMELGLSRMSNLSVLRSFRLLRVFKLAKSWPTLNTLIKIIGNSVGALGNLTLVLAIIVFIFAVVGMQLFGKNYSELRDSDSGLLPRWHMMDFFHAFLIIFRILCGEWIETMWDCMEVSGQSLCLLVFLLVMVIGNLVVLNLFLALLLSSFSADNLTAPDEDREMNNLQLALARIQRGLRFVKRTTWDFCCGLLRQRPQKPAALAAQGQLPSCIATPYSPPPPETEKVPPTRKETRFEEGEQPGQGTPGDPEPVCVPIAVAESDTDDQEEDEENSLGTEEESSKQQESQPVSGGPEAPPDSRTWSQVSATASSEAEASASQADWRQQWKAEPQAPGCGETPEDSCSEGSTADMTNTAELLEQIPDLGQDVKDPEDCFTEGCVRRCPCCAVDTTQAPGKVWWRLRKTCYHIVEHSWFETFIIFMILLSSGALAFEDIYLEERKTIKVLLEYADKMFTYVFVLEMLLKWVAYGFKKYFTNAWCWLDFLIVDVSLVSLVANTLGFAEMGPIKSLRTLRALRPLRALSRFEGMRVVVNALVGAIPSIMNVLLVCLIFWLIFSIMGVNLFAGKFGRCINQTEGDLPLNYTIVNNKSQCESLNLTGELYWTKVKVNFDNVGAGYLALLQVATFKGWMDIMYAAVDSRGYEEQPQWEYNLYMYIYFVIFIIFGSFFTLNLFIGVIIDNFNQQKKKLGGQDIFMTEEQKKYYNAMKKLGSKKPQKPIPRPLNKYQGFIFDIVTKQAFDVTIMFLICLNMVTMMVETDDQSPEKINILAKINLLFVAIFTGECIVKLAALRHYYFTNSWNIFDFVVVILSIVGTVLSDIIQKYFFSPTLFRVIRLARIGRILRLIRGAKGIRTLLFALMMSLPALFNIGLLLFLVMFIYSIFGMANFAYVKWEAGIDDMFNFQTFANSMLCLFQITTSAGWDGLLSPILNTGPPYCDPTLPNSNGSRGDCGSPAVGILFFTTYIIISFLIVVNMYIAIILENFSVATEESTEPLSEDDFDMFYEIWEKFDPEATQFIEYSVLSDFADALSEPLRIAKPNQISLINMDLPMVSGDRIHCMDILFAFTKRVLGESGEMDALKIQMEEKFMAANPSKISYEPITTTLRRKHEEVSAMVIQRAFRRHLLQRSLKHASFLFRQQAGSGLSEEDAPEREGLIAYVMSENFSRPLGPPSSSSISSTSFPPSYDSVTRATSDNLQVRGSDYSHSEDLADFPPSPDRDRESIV

As for `Cc1noc(Cn2nc3ccc(-c4ccc(OC(F)(F)F)cc4)cn3c2=O)n1` [compound 1, 2-((3-methyl-1,2,4-oxadiazol-5-yl)methyl)-6-(4-(trifluoromethoxy)phenyl)-[1,2,4]triazolo[4,3-a]pyridin-3(2H)-one], the inhibition at 1 µM came to 27.5%.
To `Cc1cc(C)nc(OCCn2nc3ccc(-c4ccc(OC(F)(F)F)cc4)cn3c2=O)n1` [compound 88, 2-(2-(4,6-dimethylpyrimidin-2-yloxy)ethyl)-6-(4-(trifluoromethoxy)phenyl)-[1,2,4]triazolo[4,3-a]pyridin-3(2H)-one] belongs 20.8%; to `Cc1c(-c2ccc(OC(F)(F)F)cc2)ccc2n[nH]c(=O)n12` [compound 187, 5-methyl-6-(4-(trifluoromethoxy)phenyl)-[1,2,4]triazolo[4,3-a]pyridin-3(2H)-one], 29.8%.
Regarding `Cc1noc(Cn2nc3ccc(-c4ccc(OC(F)(F)F)cc4C)cn3c2=O)n1` [compound 87, 2-((3-methyl-1,2,4-oxadiazol-5-yl)methyl)-6-(2-methyl-4-(trifluoromethoxy)phenyl)-[1,2,4]triazolo[4,3-a]pyridin-3(2H)-one], the inhibition at 1 µM was 21.3%.
For the molecule `COc1ccccc1OCCCn1nc2ccc(-c3ccc(OC(F)(F)F)cc3)cn2c1=O` [compound 37, 2-(3-(2-methoxyphenoxy)propyl)-6-(4-(trifluoromethoxy)phenyl)-[1,2,4]triazolo[4,3-a]pyridin-3(2H)-one], the inhibition at 1 µM turned out to be 34.5%.
`O=c1n(CCOc2ccccn2)nc2ccc(-c3ccc(OC(F)(F)F)cc3)cn12` [compound 49, 2-(2-(pyridin-2-yloxy)ethyl)-6-(4-(trifluoromethoxy)phenyl)-[1,2,4]triazolo[4,3-a]pyridin-3(2H)-one]: the inhibition at 1 µM was found to be 29.9%.
Consider `COc1c(-c2ccc(OC(F)(F)F)cc2)ccc2nn(Cc3nc(C)no3)c(=O)n12` [compound 30, 5-methoxy-2-((3-methyl-1,2,4-oxadiazol-5-yl)methyl)-6-(4-(trifluoromethoxy)phenyl)-[1,2,4]triazolo[4,3-a]pyridin-3(2H)-one], for which the inhibition at 1 µM came to 18.2%.
Next, `Cc1nonc1Cn1nc2ccc(-c3ccc(OC(F)(F)F)cc3)cn2c1=O` [compound 2, 2-((4-methyl-1,2,5-oxadiazol-3-yl)methyl)-6-(4-(trifluoromethoxy)phenyl)-[1,2,4]triazolo[4,3-a]pyridin-3(2H)-one]: 41.3%; `Cc1noc(Cn2nc3ccc(-c4ccc(Oc5ccc(Cl)cc5)cc4)cn3c2=O)n1` [compound 53, 6-(4-(4-chlorophenoxy)phenyl)-2-((3-methyl-1,2,4-oxadiazol-5-yl)methyl)-[1,2,4]triazolo[4,3-a]pyridin-3(2H)-one]: 55.9%; `O=c1n(CCCOc2cnccn2)nc2ccc(-c3ccc(OC(F)(F)F)cc3)cn12` [compound 85, 2-(3-(pyrazin-2-yloxy)propyl)-6-(4-(trifluoromethoxy)phenyl)-[1,2,4]triazolo[4,3-a]pyridin-3(2H)-one]: 12.2%.
For `Cc1noc(Cn2nc3ccc(-c4ccc(OCC(F)(F)F)cc4)cn3c2=O)n1` [compound 83, 2-((3-methyl-1,2,4-oxadiazol-5-yl)methyl)-6-(4-(2,2,2-trifluoroethoxy)phenyl)-[1,2,4]triazolo[4,3-a]pyridin-3(2H)-one], the inhibition at 1 µM was found to be 10.7%.
To `Cn1nc(C2CC2)cc1Cn1nc2ccc(-c3ccc(OC(F)(F)F)cc3)cn2c1=O` [compound 26, 2-((3-cyclopropyl-1-methyl-1H-pyrazol-5-yl)methyl)-6-(4-(trifluoromethoxy)phenyl)-[1,2,4]triazolo[4,3-a]pyridin-3(2H)-one] belongs 19.3%; to `CC(C)Oc1ccnc(OCCn2nc3ccc(-c4ccc(OC(F)(F)F)cc4)cn3c2=O)n1` [compound 177, 2-(2-(4-isopropoxypyrimidin-2-yloxy)ethyl)-6-(4-(trifluoromethoxy)phenyl)-[1,2,4]triazolo[4,3-a]pyridin-3(2H)-one], 25.8%.
Turning to `O=c1n(C/C=C/c2ccccc2)nc2ccc(-c3ccc(OC(F)(F)F)cc3)cn12` [compound 151, 2-cinnamyl-6-(4-(trifluoromethoxy)phenyl)-[1,2,4]triazolo[4,3-a]pyridin-3(2H)-one], the inhibition at 1 µM is 16.5%.
Take `COc1cc(F)ccc1OCC(O)Cn1nc2ccc(-c3ccc(OC(F)(F)F)cc3)cn2c1=O` (stereo not drawn) [compound 98, 2-(3-(4-fluoro-2-methoxyphenoxy)-2-hydroxypropyl)-6-(4-(trifluoromethoxy)phenyl)-[1,2,4]triazolo[4,3-a]pyridin-3(2H)-one]: the inhibition at 1 µM stood at 23.2%.
Consider `CC(=O)OCc1nc(Cn2nc3ccc(-c4ccc(OC(F)(F)F)cc4)cn3c2=O)no1` [compound 94, (3-((3-oxo-6-(4-(trifluoromethoxy)phenyl)-[1,2,4]triazolo[4,3-a]pyridin-2(3H)-yl)methyl)-1,2,4-oxadiazol-5-yl)methyl acetate], for which the inhibition at 1 µM came to 28.2%.
Next, `Cc1cnc(Cn2nc3ccc(-c4ccc(Cl)cc4)cn3c2=O)o1` [compound 195, 6-(4-chlorophenyl)-2-((5-methyloxazol-2-yl)methyl)-[1,2,4]triazolo[4,3-a]pyridin-3(2H)-one]: 31.2%.
On to `Cc1noc(Cn2nc3ccc(-c4ccc(Cl)c(Cl)c4)cn3c2=O)n1` [compound 134, 6-(3,4-dichlorophenyl)-2-((3-methyl-1,2,4-oxadiazol-5-yl)methyl)-[1,2,4]triazolo[4,3-a]pyridin-3(2H)-one], for which the inhibition at 1 µM was determined as 15.5%.
For the molecule `Cc1nc(Cn2nc3ccc(-c4ccc(OC(F)(F)F)cc4)cn3c2=O)no1` [compound 3, 2-((5-methyl-1,2,4-oxadiazol-3-yl)methyl)-6-(4-(trifluoromethoxy)phenyl)-[1,2,4]triazolo[4,3-a]pyridin-3(2H)-one], the inhibition at 1 µM is 29.3%.
To `O=c1n(CCc2ccncn2)nc2ccc(-c3ccc(OC(F)(F)F)cc3)cn12` [compound 113, 2-(2-(pyrimidin-4-yl)ethyl)-6-(4-(trifluoromethoxy)phenyl)-[1,2,4]triazolo[4,3-a]pyridin-3(2H)-one] belongs 17.8%.
As to `O=c1n(Cc2cc(-c3ccccn3)on2)nc2ccc(-c3ccc(OC(F)(F)F)cc3)cn12` [compound 144, 2-((5-(pyridin-2-yl)isoxazol-3-yl)methyl)-6-(4-(trifluoromethoxy)phenyl)-[1,2,4]triazolo[4,3-a]pyridin-3(2H)-one], the inhibition at 1 µM stood at 19.2%.
Regarding `CCOC(COc1ccc(F)cc1OC)Cn1nc2ccc(-c3ccc(OC(F)(F)F)cc3)cn2c1=O` (stereo not drawn) [compound 105, 2-(2-ethoxy-3-(4-fluoro-2-methoxyphenoxy)propyl)-6-(4-(trifluoromethoxy)phenyl)-[1,2,4]triazolo[4,3-a]pyridin-3(2H)-one], the inhibition at 1 µM amounted to 45%.
Take `O=c1n(CCOc2nccc(OCC3CC3)n2)nc2ccc(-c3ccc(OC(F)(F)F)cc3)cn12` [compound 179, 2-(2-(4-(cyclopropylmethoxy)pyrimidin-2-yloxy)ethyl)-6-(4-(trifluoromethoxy)phenyl)-[1,2,4]triazolo[4,3-a]pyridin-3(2H)-one]: the inhibition at 1 µM came to 30.3%.
As to `Cn1c(CCn2nc3ccc(-c4ccc(OC(F)(F)F)cc4)cn3c2=O)nc2ccccc21` [compound 97, 2-(2-(1-methyl-1H-benzo[d]imidazol-2-yl)ethyl)-6-(4-(trifluoromethoxy)phenyl)-[1,2,4]triazolo[4,3-a]pyridin-3(2H)-one], the inhibition at 1 µM stood at 16%.
